Assay results published in US7868014B2, “1-(hetero)aryl-3-amino-pyrrolidine derivatives for use as mGluR3 antagonists” (Eli Lilly and Company, priority 2004, dated 2011).
Counter-ions that a name gives are not always drawn.

These compounds were tested against T1, human mGluR3 (Homo sapiens, UniProt Q14832) (assay: Antagonism of glutamate-induced increase in intracellular calcium (FLIPR) in mGluR3-expressing AV12 cells). Conditions: antagonism of 50 μM glutamate-induced calcium response, AV12 cells expressing human mGluR3 and Gα15, Fluo-3AM.
T1 construct: expressed in transfected cells; host or cells: AV12 cells (adenovirus-transformed Syrian hamster cell line) stably expressing RGT and GLT, co-transfected with Galpha15
T1 sequence (Q14832 23-879): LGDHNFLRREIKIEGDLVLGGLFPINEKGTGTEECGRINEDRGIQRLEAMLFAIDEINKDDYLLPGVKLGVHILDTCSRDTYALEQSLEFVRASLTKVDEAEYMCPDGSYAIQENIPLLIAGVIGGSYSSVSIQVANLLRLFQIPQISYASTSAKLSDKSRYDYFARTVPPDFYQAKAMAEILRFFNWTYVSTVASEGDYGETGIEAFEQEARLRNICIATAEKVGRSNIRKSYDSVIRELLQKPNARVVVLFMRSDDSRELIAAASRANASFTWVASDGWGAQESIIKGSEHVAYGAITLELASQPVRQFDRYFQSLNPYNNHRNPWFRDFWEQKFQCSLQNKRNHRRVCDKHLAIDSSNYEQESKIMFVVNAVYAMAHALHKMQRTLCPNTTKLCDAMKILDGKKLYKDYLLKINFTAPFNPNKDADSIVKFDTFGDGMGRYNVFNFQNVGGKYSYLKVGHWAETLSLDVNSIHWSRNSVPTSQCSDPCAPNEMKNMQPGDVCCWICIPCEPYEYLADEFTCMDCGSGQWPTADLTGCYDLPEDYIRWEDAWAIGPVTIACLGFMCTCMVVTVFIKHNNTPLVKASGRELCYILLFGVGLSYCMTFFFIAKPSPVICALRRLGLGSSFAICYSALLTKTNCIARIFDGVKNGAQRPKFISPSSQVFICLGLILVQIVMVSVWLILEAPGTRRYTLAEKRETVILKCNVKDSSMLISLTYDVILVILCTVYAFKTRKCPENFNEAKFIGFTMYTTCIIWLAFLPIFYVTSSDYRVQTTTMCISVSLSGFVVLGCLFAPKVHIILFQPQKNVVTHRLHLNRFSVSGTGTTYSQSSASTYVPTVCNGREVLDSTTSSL
Format: cell-based
Procedure: Antagonism of Glutamate-Induced Increase in Intracellular Calcium with a mGluRs Expressing Cell Line
Introduce human mGluR3 and the promiscuous G-protein, Galpha15 (Gα15) into AV12 cells (an adenovirus-transformed Syrian hamster cell line) that stably express RGT (Rat Glutamate Transporter) and GLT (Glutamate Like Transporter). Maintain the expression of these four exogenous genes by culturing the cells in DMEM (Gibco, 11960-051) supplemented with 5% dialyzed fetal bovine serum, 2 mM glutamine, 1 mM sodium pyruvate, 10 mM HEPES, 100 μg/mL G418, 1 μg/mL puromycin, 1 μg/mL blastocidin, and 100 μg/mL zeocin. Passage confluent cultures weekly. The expression of Gα15 allows the change of the signaling pathway of the mGlu3 receptor to one that can be easily monitored through the release of intracellular calcium before and after the addition of drugs on a Fluorometric Imaging Plate Reader (i.e. FLIPR, Molecular Devices). Use the following buffers throughout as the Assay Buffer: HBSS (BioWhittaker, 10-527F) supplemented with 20 mM HEPES (Biowhittaker, 17-737E) at pH 7.4. Prepare a stock solution of 4 mM Fluo-3AM (Molecular Probes, F-1241), a calcium sensitive dye by adding 2.21 mL of 20% pluronate in DMSO to a vial containing 10 mg of Fluo-3AM. Sonicate the solution for 30 minutes to facilitate solubilization of the Fluo-3AM and then store at −20° C. Prepare the working solution of 8 μM Fluo-3AM by diluting the stock Fluo-3AM (4 mM) 500-fold into Assay Buffer. Harvest cells 24 h prior to assay using Hank's based cell dissociation solution (Specialty Media, a division of Cell & Molecular Technologies, S-004-B) and plate at a density of 50,000 cells per well in a 96-well poly-D-lysine treated black walled, clear bottom plate (Becton Dickinson, 356640). Incubate cells with 8 μM Fluo-3AM (50 μL per well) for 2 hours at 25° C. Following the dye-loading of the cells, remove the 8 μM Fluo-3AM and replace with Assay Buffer pre-warmed to 37° C. (50 μL per well). Ready the cells for assay on the FLIPR. Set the stage of the FLIPR to 34.5° C. prior to initiation of the assay. Perform a two addition FLIPR assay. Pre-warm the reagents for both additions (compounds and glutamate) to 37° C. prior to initiation of the assay. Add the test compound to the cell plate (50 μL per well) after taking an initial fluorescent read of the cell plate for 10 seconds. Test compounds in a 10 point concentration response curve starting at a final concentration on the cells of 12.5 μM with 3-fold dilutions in Assay Buffer/1.25% DMSO. Collect data every second for the first 30 seconds and then every 3 seconds until the second addition made at 2 minutes. Perform the second addition of 100 μM glutamate in Assay Buffer (100 μL per well for a final glutamate concentration of 50 μM on the cells) 2 minutes after the addition of compound. Collect the second addition data every second for 30 seconds and then every 3 seconds until the end of the run at total time of 3.25 minutes. Measure the response as maximal peak height in Relative Fluorescent Units (RFUs). Define the assay window as the maximal response obtained by 50 μM glutamate minus the response obtained by buffer alone. Express the results as a percent of the assay window.

IC50	Compound
5780 nM	Fc1ccc(N2CC[C@H](NCc3ccccc3I)C2)cn1 [Example 59, (S)-[1-(6-Fluoropyridin-3-yl)-pyrrolidin-3-yl]-(2-iodobenzyl)-amine hydrochloride]
2270 nM	Clc1ccc(CN[C@H]2CCN(c3ccc(-c4ccccc4)cn3)C2)c(Cl)c1 [Example 108, (S)-(2,4-Dichlorobenzyl)-[1-(5-phenylpyridin-2-yl)-pyrrolidin-3-yl]-amine]
3910 nM	CC(=O)c1ccc(N2CC[C@H](NCc3ccc(Cl)cc3Cl)C2)s1 [Example 6, (S)-1-{5-[3-(2,4-Dichlorobenzylamino)-pyrrolidin-1-yl]-thiophen-2-yl}-ethanone]
191 nM	O=[N+]([O-])c1ccc(N2CC[C@H](NCc3ccc(Cl)cc3Cl)C2)nc1 [Example 1, (S)-(2,4-Dichlorobenzyl)-[1-(5-nitropyridin-2-yl)-pyrrolidin-3-yl]-amine]
607 nM	Clc1ccc(CN[C@H]2CCN(c3ccc(I)cn3)C2)c(Cl)c1 [Example 23, (S)-(2,4-Dichlorobenzyl)-[1-(5-iodopyridin-2-yl)-pyrrolidin-3-yl]-amine hydrochloride]
4930 nM	FC1CN(c2ncc(Br)cn2)CC1NCc1ccc(Cl)cc1Cl (centres unmarked) [Example 101, [1-(5 -Bromopyrimidin-2-yl)-4-fluoropyrrolidin-3-yl]-(2,4-dichlorobenzyl)-amine hydrochloride]
1680 nM	O=C1CN(c2ncc(Br)cn2)CC1NCc1ccc(Cl)cc1Cl (centres unmarked) [Example 121, 1-(5-Bromopyrimidin-2-yl)-4-(2,4-dichlorobenzylamino)-pyrrolidin-3-one]
340 nM	Clc1ccc(CN[C@H]2CCN(c3ncc(Br)cn3)C2)c(Cl)c1 [Example 28, (S)-[1-(5-Bromopyrimidin-2-yl)-pyrrolidin-3-yl]-(2,4-dichlorobenzyl)-amine]
1650 nM	FC(F)(F)c1ccc(CN[C@H]2CCN(c3ncc(Br)cn3)C2)c(Cl)c1 [Example 112, (3S)-[1-(5-Bromopyrimidin-2-yl)-pyrrolidin-3-yl]-(2-chloro-4-trifluoromethylbenzyl)-amine]
77 nM	Clc1cnc(N2CC[C@H](NCc3ccc(Cl)cc3Cl)C2)nc1 [Example 134, (S)-[1-(5-Chloropyrimidin-2-yl)-pyrrolidin-3-yl]-(2,4-dichlorobenzyl)-amine]
143 nM	C#Cc1ccc(N2CC[C@H](NCc3ccc(Cl)cc3Cl)C2)nc1 [Example 87, (S)-(2,4-Dichlorobenzyl)-[1-(5-ethynylpyridin-2-yl)-pyrrolidin-3-yl]-amine]
1180 nM	N#Cc1cnc(N2CC[C@H](NCc3ccc(Cl)cc3Cl)C2)nc1 [Example 123, (S)-2-[3-(2,4-Dichlorobenzylamino)-pyrrolidin-1-yl]-pyrimidine-5-carbonitrile]

The compounds below were run on male Sprague-Dawley rats (assay: Rat dural plasma protein extravasation (PPE) model). Conditions: i.v. (tail-vein injection), 60 min before trigeminal ganglion stimulation; dose that gives an extravasation ratio of approximately 1.
Format: in vivo
Procedure: Rat Dural Plasma Protein Extravasation (PPE) Model
Prepare 100 μg/ml stock solution of test compound in a DMSO/saline (20%/80% v/v) solution and make subsequent dilutions with saline. Dose male Sprague-Dawley rats from Harlan Laboratories (250-350 g) with test compound or saline vehicle by oral gavage (2 mL/kg) or intravenous tail-vein injection (1 mL/kg) 45 minutes prior to administration of anesthesia and placement in a stereotaxic frame for implantation of stimulating electrodes. The rats dosed via the oral route are fasted overnight prior to dosing. Fifteen minutes prior to trigeminal ganglion stimulation, the rats are anesthetized with Nembutal (60 mg/kg, ip.) and placed in a stereotaxic frame (David Kopf Instruments) with the incisor bar set at −2.5 mm. […]
A fluorescence microscope (Zeiss) equipped with a grating monochromator and a spectrophotometer is used to quantify the amount of FITC-BSA dye in each dural sample. […] This facilitates the computer-controlled movement of the stage, with fluorescence measurements at 25 points (500 μm steps) on each dural sample. […] The extravasation ratio (i.e. the ratio of the amount of extravasation in the dura from the stimulated side compared to the unstimulated side) is calculated. […]

Compound	ID100 (μg/mL) i.v.
Clc1ccc(CN[C@H]2CCN(c3ncc(Br)cn3)C2)c(Cl)c1 [Example 28, (S)-[1-(5-Bromopyrimidin-2-yl)-pyrrolidin-3-yl]-(2,4-dichlorobenzyl)-amine]	3 µg/mL

Same assay, conditions: p.o. (oral gavage), 60 min before trigeminal ganglion stimulation; dose that gives an extravasation ratio of approximately 1

Compound	ID100 (μg/mL) p.o.
Clc1ccc(CN[C@H]2CCN(c3ncc(Br)cn3)C2)c(Cl)c1 [Example 28, (S)-[1-(5-Bromopyrimidin-2-yl)-pyrrolidin-3-yl]-(2,4-dichlorobenzyl)-amine]	3 µg/mL
